Laboratory results as given in article PMC10587159, “Biosynthesis and engineering of the nonribosomal peptides with a C-terminal putrescine” (Nature Communications, 2023).
Entries after “also recorded” stand apart in the source; their conditions may differ. Non-standard residues stand in square brackets, D forms with d. Residues, ends and D or L forms follow the SMILES beside them. *: point of attachment. Myristoyl = CCCCCCCCCCCCCC(=O)*; NH(CH2)4NH2 = NCCCCN*

Key:
[1] = test system: human cells Kasumi; assay: MTT cytotoxicity assay, Kasumi; type: cell-based; conditions: for IC50: 24 h
From the text: (§1) The two human acute lymphoblastic leukemia cells K562 and Kasumi, two human breast adenocarcinoma cells MCF7 and MDA-MB-231, human hepatoma cell HepG-2, human lung adenocarcinoma cell A549, human gastric cancer cell SGC-7901, human colon cancer cell HCT-116, human ovarian cancer cell line SKOV3, or human lung epithelial normal cell 2B were obtained from Beyotime Biotechnology and utilized to test the cytotoxicity of compounds by MTT assays as previous study. The anti-inflammatory effect of the compounds was detected by the influence on the increase in the level of nitric oxide caused by lipopolysaccharide (LPS) based on the classic Griess method. RAW 264.7 cells (Shanghai Institutes for Biological Science) were seeded in 96-well plates and incubated for 24 h. Then, cells were treated with compounds 29, 29a, 31, and 31a (0-80 μM) for 30 min, followed by co-treatment with LPS ([…]) for another 24 h. The Nitric Oxide assay kit with Griess reagents (Beyotime, Lot: S0021, Shanghai, China) was used to examine cellular supernatant nitrite accumulation, which represents cellular NO levels. The OD value of 540 nm absorbance was detected with a microplate reader. Their authentication in the laboratory was performed regularly based on morphology and gene/protein expression. The tested micro-organisms including Gram-negative bacteria E. coli ATCC 35218 and Pseudomonas aeruginosa ATCC 27853, and Gram-positive bacteria Staphylococcus aureus ATCC 29213 and B. subtilis ATCC 6633, and fungi Candida albicans, Rhizoctonia solani and Aspergillus fumigatus were treated with different concentrations of compounds (1 μM, 10 μM, 100 μM) using Bauer-Kirby disk diffusion method to evaluate the antimicrobial activities.

[2] = test system: human lung adenocarcinoma cell A549; assay: MTT cytotoxicity assay, A549; type: cell-based; conditions: for IC50: 24 h; for cytotoxic / antitumor activity against A549 in words: MTT assay
From the text: as §1

[3] = test system: S. brevitalea DSM 7029 wild type; assay: Growth curve of DSM 7029 wild type with compounds (Bioscreen C); type: cell-based, Schlegelella brevitalea DSM 7029; conditions: CYMG medium; for effect on growth of DSM 7029 wild type in words: compound 0.1 μg/μL, OD600 every hour for 42 h, Bioscreen C
Method: (§2) The growth curve was tested by Bioscreen C (Labsystems, Finland) as follow. Overnight culture was inoculated into 400 μL fresh CYMG medium in the ratio of 1:100 (the concentration of compounds was 0.1 μg/μL) and shook in normal speed. The OD600 value was gained in every hour for 42 h in total. Biofilm formation was measured at 18 h and 36 h respectively, as reported previously. In brief, the free-floating cells were removed, and the microtitre plate was washed with PBS (pH 7.4) after incubation for 18 h and 36 h. The biofilm was stained by adding 200 µL of crystal violet (0.1%) solution. Crystal violet solution was removed after 15 min and 200 µL of ethanol (95%) was added. The absorbance at OD600 was read using a microplate reader (Infinite M200, Tecan, Männedorf, Switzerland). Meanwhile, free-floating cells were used to test the secretion of pigment. The bacteria were removed and the supernatant was measured at OD600.

[4] = test system: human colon cancer cell HCT-116; assay: cells; type: cell-based; conditions: 24 h
From the text: as §1

[5] = test system: human hepatoma cell HepG-2; assay: cells; type: cell-based; conditions: 24 h
From the text: as §1

[6] = test system: human lung epithelial normal cell 2B; assay: cells; type: cell-based; conditions: 24 h
From the text: as §1

[7] = test system: human breast adenocarcinoma cells MDA-MB-231; assay: cells; type: cell-based; conditions: 24 h
From the text: as §1

[8] = test system: human breast adenocarcinoma cells MCF7; assay: cells; type: cell-based; conditions: 24 h
From the text: as §1

[9] = test system: human gastric cancer cell SGC-7901; assay: cells; type: cell-based; conditions: 24 h
From the text: as §1

[10] = test system: human acute lymphoblastic leukemia cells K562; assay: cells; type: cell-based; conditions: 24 h
From the text: as §1

[11] = test system: HepG2 cells; assay: Extracellular and intracellular compound in HepG2 cells (LC-MS); type: in vitro ADME, human; conditions: 3 h; for Intracellular compound, Average / Extracellular compound, Average: HepG2, six-well plates, 5 μg/mL (10,000 ng in total), mean of n = 3; for Intracellular compound, Average: cells extracted with MeOH; for Extracellular compound, Average: culture medium extracted with MeOH
Method: (§3) Comparing the concentration of compounds (7, 10, 10a) in extracellular and intracellular after the HepG2 cell line dealt with compounds. HepG2 cells were plated in six-well plates at a density of 1.5 × 10^5 cells/well and grew overnight. After cell treated with compounds (5 μg/mL) for 3 h, the compounds were extracted with MeOH for cells culture medium and cells separately as followed the reported method. The compounds were quantified by LC‒MS (5%‒95% ACN in 15 min). The cell numbers of HepG2 with the compounds treatments was determined. […]
(§4) To determine whether the difference in bioactivity of products (with or without Put moiety) is due to variations in cellular uptake, we treated hepatoma cell line HepG2 with compounds 7 (C12 acyl), 10 (C14 acyl), and 10a (C14 acyl and without Put) (Supplementary Fig. 33c). The cells were treated for 3 h, and then culture medium and cells were extracted separately. LC-MS was used to detect and quantify the compounds.
(§5) At lower concentrations (5000 ng/mL, and 10,000 ng in total for each group), and […]
(§6) may be contributing to the differences in antitumor activity (Supplementary Fig. 33b).
(§7) This could be due to differences in the speed of cellu lar uptake or differences in drug metabolism rate, requiring further experimental investigation.

[12] = test system: native host DSM 7029; assay: Inhibition zone test on the native host DSM 7029; type: cell-based, Schlegelella brevitalea DSM 7029; conditions: same method as for the seven tested strains
From the text: as §1, with “The tested micro-organisms including Gram-negative bacteria E. coli ATCC 35218 and Pseudomonas aeruginosa ATCC 27853, and Gram-positive bacteria Staphylococcus aureus ATCC 29213 and B. subtilis ATCC 6633, and fungi Candida albicans, Rhizoctonia solani and Aspergillus fumigatus were treated with different concentrations of compounds (1 μM, 10 μM, 100 μM) using Bauer-Kirby disk diffusion method to evaluate the antimicrobial activities.” left out

[13] = test system: tumor lines; assay: MTT cytotoxicity assay, statements on the whole panel; type: cell-based, human; conditions: MTT assay, panel of tumor cell lines
From the text: as §1

[14] = test system: HepG2 cells; assay: Cell numbers of HepG2 after compound treatment; type: cell-based, human; conditions: HepG2, 1.5 × 10^5 cells/well plated, compound 5 μg/mL, 3 h; mean of n = 3
Method: as §3, §4, §5, §6, §7

[15] = Solubility in solvents (observation); type: physicochemical; conditions: observation in water, methanol, acetonitrile, DMSO
From the text: Putrescine is also a precursor of some specialized compounds, such as industrial polyamide nylon 4,6[33] and siderophore alcaligin[55]. To clarify the function of the Put moiety of glidonins, we synthesized lipopeptide 10a without the Put group.

[16] = test system: S. brevitalea DSM 7029 wild type; assay: Biofilm formation of DSM 7029 wild type with compounds (crystal violet); type: cell-based, Schlegelella brevitalea DSM 7029; conditions: for effect on biofilm formation of DSM 7029 wild type in words: crystal violet staining
Method: as §2

[17] = test system: methionyl-tRNA formyltransferase (Fmt); assay: In vitro transformylation assay with Fmt; type: biochemical, Schlegelella brevitalea DSM 7029; conditions: 1 mM substrate, 25 μM Fmt, 1.5 mM N5,N10-methenylH4F, 50 mM HEPES pH 7.5, 30 °C, 4 h
Method: The in vitro assay of formyltransferase was tested. In brief, the formyl-donor co-substrate intermediate N^5, N^10-methenylH4F was first synthesized as follow: 14 mg of N^5-fH4F was dissolved in 3 mL of water and was converted to N^5, N^10-methenylH^4F through addition of 0.1 M HCl, until pH 1.9 was reached. The solution was then brought to a final volume of 4.4 mL with water and continually incubated at room temperature for 4 h. Then, the transformylation assay was setup in a 50 μL volume, in the presence of 50 mM HEPES buffer pH 7.5, 1 mM substrates (compounds 1, 1a, 13a), 1.5 mM N^5, N^10-methenylH4F, and 25 μM Fmt (35 kDa). Before the addition of the compounds and the enzyme, the intermediate N^5, N^10-methenylH4F was preincubated in the reaction buffer at 30 °C for 30 min, to permit the final pH-dependent conversion to N^10-fH4F. After the addition of the compounds and the enzyme, the reaction was allowed to proceed for 4 h at 30 °C, then ceased by the addition of 2 μL FA, and analyzed via HPLC‒MS. The condition for 1: 0–3 min, 20% ACN; 3–18 min, 20–60% ACN; 18.1 min, 95% ACN; 18.1–22 min, 95% ACN; 22.1 min, 20% ACN; 22.1–25 min, 20% ACN, ACN and H2O contained 0.1% FA; detection by UV spectroscopy at 200–400 nm. […]

[18] = Chemical stability of 1 in MeOH (oxidation to 2); type: physicochemical; conditions: purified 1 dissolved in MeOH for 3 days
[19] = relative to wild type treated with H2O = 100%, crystal violet 0.1%, OD600, mean of n = 3

IC50 [5]	SMILES	IC50 [1]	IC50 [2]	effect on growth of DSM 7029 wild type in words [3]	IC50 [4]	IC50 [6]	IC50 [7]	IC50 [8]	IC50 [9]	IC50 [10]	Intracellular compound, Average [11]	Extracellular compound, Average [11]	solubility in words [15]	effect on biofilm formation of DSM 7029 wild type in words [16]	cytotoxic / antitumor activity against A549 in words [2]	further results
> 20 µM	CCCCCCCCCCCCCC(=O)N[C@H](CCSC)C(=O)N[C@H](CC(N)=O)C(=O)N1CCC[C@H]1C(=O)N[C@H](C(=O)N[C@H](Cc1ccccc1)C(=O)N1CCC[C@H]1C(=O)N[C@@H](Cc1c[nH]c2ccccc12)C(=O)N[C@@H](C(=O)N[C@@H](C)C(=O)N[C@H](C)C(=O)N[C@@H](CO)C(=O)N[C@@H](C)C(=O)O)C(C)C)C(C)C [Compound 10a] (Myristoyl-[dM][dN]PV[dF]PW[dV]A[dA]SA-OH)	–	> 20 µM	–	–	> 20 µM	–	–	–	–	11.984 ng	7245.41 ng	soluble only in dimethyl sulfoxide (DMSO)	–	lower than those of 10	–
> 20 µM	CSCC[C@@H](N)C(=O)N[C@H](CC(N)=O)C(=O)N1CCC[C@H]1C(=O)N[C@H](C(=O)N[C@H](Cc1ccccc1)C(=O)N1CCC[C@H]1C(=O)N[C@@H](Cc1c[nH]c2ccccc12)C(=O)N[C@@H](C(=O)N[C@@H](C)C(=O)N[C@H](C)C(=O)N[C@@H](CO)C(=O)N[C@@H](C)C(=O)NCCCCN)C(C)C)C(C)C [Compound 1, Glidonin A] (H-[dM][dN]PV[dF]PW[dV]A[dA]SA-{NH(CH2)4NH2})	18.3 ± 1.22 µM	7.2 ± 0.79 µM	no effect	> 20 µM	> 20 µM	> 20 µM	> 20 µM	> 20 µM	> 20 µM	–	–	–	less effect on biofilm formation	moderate activities	cytotoxic activity against Kasumi in words ([1]; MTT assay): moderate activities; formylation by Fmt, formyl product by HPLC-MS [17]: higher than control; chemical stability: change of 1 to the Met(O) product 2 [18]: without changing to 2; biofilm formation 18 h, Average [16, 19]: 98.1978%; biofilm formation 36 h, Average [16, 19]: 87.2902%

SMILES	IC50 [5]	IC50 [1]	IC50 [2]	effect on growth of DSM 7029 wild type in words [3]	IC50 [4]	IC50 [6]	IC50 [7]	IC50 [8]	IC50 [9]	IC50 [10]	Intracellular compound, Average [11]	Extracellular compound, Average [11]	solubility in words [15]	effect on biofilm formation of DSM 7029 wild type in words [16]	cytotoxic / antitumor activity against A549 in words [2]	further results
CCCCCCCCCCCCCC(=O)N[C@H](CCSC)C(=O)N[C@H](CC(N)=O)C(=O)N1CCC[C@H]1C(=O)N[C@H](C(=O)N[C@H](Cc1ccccc1)C(=O)N1CCC[C@H]1C(=O)N[C@@H](Cc1c[nH]c2ccccc12)C(=O)N[C@@H](C(=O)N[C@@H](C)C(=O)N[C@H](C)C(=O)N[C@@H](CO)C(=O)N[C@@H](C)C(=O)NCCCCN)C(C)C)C(C)C [Compound 10, Glidonin J] (Myristoyl-[dM][dN]PV[dF]PW[dV]A[dA]SA-{NH(CH2)4NH2})	6.68 µM	1.39 µM	7.15 ± 0.47 µM	weak inhibition of growth; also recorded: obviously inhibit the growth	> 20 µM	11.8 ± 0.15 µM	7.2 ± 0.79 µM	> 20 µM	> 20 µM	7.2 ± 0.79 µM	6.078 ng	1078.84 ng	easily soluble in water, methanol and acetonitrile	increased biofilm formation	–	OD600 of wild type DSM 7029 with addition of compounds ([3]; control OD600 0.6): 0.4; total quantities (intracellular plus extracellular) in words ([11]; HepG2, 5000 ng/mL, compared to 10a): lower total quantities; inhibition of native host DSM 7029, inhibition zone method [12]: no inhibition; cytotoxic / antitumor activity in words [13]: broad-spectrum cytotoxicity; The cell numbers, Average [14]: 1303333
